This passage reports IC50 results from the Kinase Knowledgebase extract (Sharma et al. 2016).

Molecules are shown by their SMILES.

In this assay the target is PIK3CG (human) (UniProt P48736). Briefly: Inhibition of PIK3CG Kinase Activity.
Sequence of PIK3CG (human) (P48736 whole entry, looked up): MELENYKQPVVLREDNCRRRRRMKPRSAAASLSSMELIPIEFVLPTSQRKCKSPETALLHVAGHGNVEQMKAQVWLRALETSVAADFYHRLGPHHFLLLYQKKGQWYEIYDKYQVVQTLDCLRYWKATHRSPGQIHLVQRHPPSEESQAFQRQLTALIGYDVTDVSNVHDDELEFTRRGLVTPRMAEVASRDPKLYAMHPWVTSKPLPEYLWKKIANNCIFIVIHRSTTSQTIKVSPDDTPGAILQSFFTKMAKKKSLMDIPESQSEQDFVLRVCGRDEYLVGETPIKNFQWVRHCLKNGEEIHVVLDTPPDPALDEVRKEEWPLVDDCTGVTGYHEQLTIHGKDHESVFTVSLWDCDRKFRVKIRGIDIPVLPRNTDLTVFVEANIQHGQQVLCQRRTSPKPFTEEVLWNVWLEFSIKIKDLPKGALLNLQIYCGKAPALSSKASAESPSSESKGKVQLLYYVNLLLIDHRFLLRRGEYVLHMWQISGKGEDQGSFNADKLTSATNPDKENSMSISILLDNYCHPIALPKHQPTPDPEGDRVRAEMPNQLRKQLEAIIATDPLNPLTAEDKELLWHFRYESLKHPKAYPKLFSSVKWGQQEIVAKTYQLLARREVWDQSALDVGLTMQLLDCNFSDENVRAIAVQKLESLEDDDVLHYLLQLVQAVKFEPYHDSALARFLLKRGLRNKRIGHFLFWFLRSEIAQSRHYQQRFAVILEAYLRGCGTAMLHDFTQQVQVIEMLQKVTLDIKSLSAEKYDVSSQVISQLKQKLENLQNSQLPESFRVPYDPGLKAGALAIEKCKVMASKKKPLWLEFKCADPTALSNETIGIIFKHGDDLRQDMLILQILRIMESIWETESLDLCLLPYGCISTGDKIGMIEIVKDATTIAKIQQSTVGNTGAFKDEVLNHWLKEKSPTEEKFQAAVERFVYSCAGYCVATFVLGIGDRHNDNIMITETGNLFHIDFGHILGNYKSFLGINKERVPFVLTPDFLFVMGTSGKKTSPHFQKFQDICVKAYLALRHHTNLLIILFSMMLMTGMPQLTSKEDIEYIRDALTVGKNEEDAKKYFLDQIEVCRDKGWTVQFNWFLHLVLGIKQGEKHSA
On to `Cn1nc(-c2cc(C(F)(F)F)ccc2O)c2cnc(N)nc21`, for which the IC50 is < 2000 nM. Then `Cn1nc(-c2ccc(OCCCN3CCOCC3)c(F)c2)c2cnc(N)nc21`, with < 2000 nM; and `COc1ccc(-c2nn(C)c3nc(N)ncc23)c(OC)c1`, with < 2000 nM; and `Cn1nc(-c2ccc(OCc3ccccc3)c(F)c2)c2cnc(N)nc21`, with < 2000 nM. The figure for `COc1cc(OC)c(S(=O)(=O)O)cc1-c1nn(C)c2nc(N)ncc12` is < 2000 nM; for `COc1ccc(C(=O)NC(C)C)cc1-c1nn(C)c2nc(N)ncc12` it is < 2000 nM; for `COc1cc(OC)c(-c2nn(C)c3nc(N)ncc23)cc1Cl` it is < 2000 nM. Then `Cn1nc(-c2cncc(C(F)(F)F)c2)c2cnc(N)nc21`, with < 2000 nM; and `COc1cc(OC(F)(F)F)ccc1-c1nn(C)c2nc(N)ncc12`, with < 2000 nM. As to `Cn1nc(-c2cc(F)cc(OCC(=O)O)c2)c2cnc(N)nc21`, the IC50 is < 2000 nM. The figure for `COc1ccc(-c2nn(C)c3nc(N)ncc23)cc1` is < 2000 nM; for `Cc1ccc(-c2nn(C)c3nc(N)ncc23)cc1[N+](=O)[O-]` it is < 2000 nM; for `COCCOc1ccc(-c2nn(C)c3nc(N)ncc23)cc1F` it is < 2000 nM. The figure for `Cc1noc(C)c1-c1nn(C)c2nc(N)ncc12` is < 2000 nM; for `Cn1nc(-c2ccc3cc[nH]c3c2)c2cnc(N)nc21` it is < 2000 nM; for `Cn1nc(-c2cc(O)cc(F)c2)c2cnc(N)nc21` it is < 2000 nM. Then `COc1c(F)cc(-c2nn(C)c3nc(N)ncc23)cc1NC(C)=O`, with < 2000 nM. `Cn1nc(-c2cnc(N3CCNCC3)nc2)c2cnc(N)nc21`: the IC50 is < 2000 nM. For the compound `Cc1[nH]c2ccc(-c3nn(C)c4nc(N)ncc34)cc2c1C`, the IC50 was < 2000 nM. Then `COc1ccc(Cl)cc1-c1nn(C)c2nc(N)ncc12`, with < 2000 nM; and `Cn1nc(-c2cc(Cl)c(O)c(Br)c2O)c2cnc(N)nc21`, with < 2000 nM; and `Cn1nc(-c2cccc(C=O)c2)c2cnc(N)nc21`, with < 2000 nM. Then `Cn1nc(-c2cc(Cl)c(O)cc2O)c2cnc(N)nc21`, with < 2000 nM; and `Cn1nc(-c2cccc(C#N)c2)c2cnc(N)nc21`, with < 2000 nM. The figure for `Cn1nc(-c2cc(Cl)c(O)c(Cl)c2)c2c(NCCN3CCOCC3)nc(N)nc21` is < 2000 nM.
